This is an account of results in patent US20260374792A1, “PHENYL-FREE BISCATIONIC QUATERNARY PHOSPHONIUM COMPOUNDS AS ANTIMICROBIAL AGENTS” (priority 2022, published 2026).

Entries after “also recorded” stand apart in the source; their conditions may differ.

Data set [1] relates to panel of bacteria. As to the kind of experiment: MIC across the panel of bacteria (Gram-positive and Gram-negative). The data set is classed as cell-based. To be noted: over the bacterial panel. The method, then:
(§1) The term “minimum inhibitory concentration (MIC)” means the lowest concentration of an antimicrobial agent that will inhibit the visible growth of a microorganism after overnight incubation. MIC values against bacteria, for example, the Gram-positive Staphylococcus aureus and Enterococcus faecalis and the Gram-negative Escherichia coli and Pseudomonas aeruginosa were determined by standard methods. See also P. A. Wayne, Methods for Dilution Antimicrobial Tests for Bacteria that Grow Aerobically; Approved Standard, Ninth Edition, 2012, CLSI Document M07-A9, Vol. 32 No. 2.
(§2) Biological testing procedures were adapted from prior work by Melander and coworkers. For all biological assays, laboratory strains of methicillin-susceptible Staphylococcus aureus MSSA (SH1000), Staphylococcus aureus CA-MRSA (USA300-0114), Staphylococcus aureus HA-MRSA (ATCC 33591), Escherichia coli (MC4100), Enterococcus faecalis (OG1RF), Acinetobacter baumannii (ATCC 17978), were grown with shaking at 37 °C overnight from freezer stocks in 5 mL of the indicated media: SH1000, OG1RF, MC4100, USA300-0114, and ATCC 17978 were grown in BDTM Mueller-Hinton broth (MHB), whereas ATCC 33591 was grown in BDTM tryptic soy broth (TSB). The inoculum were then streaked onto Mueller-Hinton agar (MHA) plates and grown overnight at 37 °C. From the plates, single colonies were selected, diluted into 50 mL of fresh media and grown overnight at 37 °C with shaking for use in the MIC assays. Optical density (OD) measurements were obtained using a SpectraMax iD3 plate reader (Molecular Devices, United States).
(§3) Compounds were serially diluted two-fold from stock solutions (1.0 mM) to yield twelve 100 μL test concentrations, wherein the starting concentration of dimethyl sulfoxide (DMSO) was 2.5%. Overnight S. aureus, E. faecalis, E. coli, A. baumannii, USA300-0114 (CA-MRSA), and ATCC 33591 (HA-MRSA) cultures were diluted to ca. 10^6 CFU/mL in MHB or TSB and regrown to mid-exponential phase, as determined by optical density recorded at 600 nm (OD600). All cultures were then diluted again to ca. 10^6 CFU/mL and 100 μL were inoculated into each well of a U-bottom 96-well plate (Corning, 351177) containing 100 μL of compound solution. Plates were incubated statically at 37 °C for 72 hours upon which wells were evaluated visually for bacterial growth. The MIC was determined as the lowest concentration of compound resulting in no bacterial growth visible to the naked eye, based on the highest value in three independent experiments. Aqueous DMSO controls were conducted as appropriate for each compound.
(§4) The prepared library of biscationic amphiphilic compounds was assessed for performance as antibacterial disinfectants by determining the minimum inhibitory concentration (MIC) for each against a panel of bacteria. The bacteria selected for the study were chosen to evaluate the broad spectrum antimicrobial performance of the QPCs, and therefore, included both Gram-positive and Gram-negative bacterial strains, including those with known antimicrobial resistance mechanisms. These bacteria include the Gram-positive strains of methicillin-susceptible Staphylococcus aureus [MSSA; SH1000], community-acquired methicillin-resistant Staphylococcus aureus [CA-MRSA; USA 300-0114], hospital-acquired methicillin-resistant Staphylococcus aureus [HA-MRSA; ATCC 33591] and the […], Escherichia coli [MC4100], Acinetobacter baumannii [ATCC 17498] and Pseudomonas aeruginosa [PAO1].

In data set [2] the test system is E. faecalis (OG1RF). The data set can be described thus: MIC against E. faecalis. Type of data set: cell-based. To be noted: Enterococcus faecalis, 72 h. The method, then:
as §1, §2, §3, §4

The subject of data set [3] is HA-MRSA. As to the kind of experiment: MBEC, biofilm eradication, HA-MRSA. The data set is classed as cell-based, Staphylococcus aureus. To be noted: 24 hours, 37 °C, TSB. The method, then: A regrowth assay was used to establish the MBEC of a compound to evaluate the antibiofilm activity.
Biofilm eradication experiments were performed using a pegged-lid microtiter plate assay to determine the MBEC values for compounds of interest, as previously described. […] Sci. Rep. 2017, 7, 2003; and Raval, Y. S., Flurin, L., Mohamed, A., Greenwood-Quaintance, K. E., Beyenal, H., & Patel, R. In Vitro Activity of Hydrogen Peroxide and Hypochlorous Acid Generated by Electrochemical Scaffolds Against Planktonic and Biofilm Bacteria. Antimicrob Agents Chemother. 2021, 65, e01966-20. Briefly, […] of mid-log phase culture diluted to ca. 10^6 CFU/mL in tryptic soy broth (TSB) was added to wells of plat-bottom 96-well plates (Thermo Scientific, 266120) and covered with 96-pegged lid (Thermo Scientific, 445497). Plates were incubated to establish bacterial biofilms after incubation at 37 °C for 24 hours. The pegged lid was then removed, washed with PBS, and transferred to another 96-well plate containing 2-fold serial dilutions of the test compounds (the “challenge plate”). The total volume in each well was […], comprising of […] of compound diluted in water/DMSO, with a starting DMSO concentration of 2.5%, and […] of TSB. Plates were incubated statically at 37 °C for 24 hours. Next, the pegged lids were transferred to a fresh 96-well plate containing […] of TSB and incubated overnight at 37 °C. MBEC values were determined as the lowest test concentration that resulted eradicated biofilm (i.e., wells displaying no turbidity in the final plate).

Data set [4] concerns A. baumannii. The data set can be described thus: MIC against A. baumannii. To be noted: Acinetobacter baumannii, 72 h. Type of data set: cell-based. The method, then:
as §1, §2, §3, §4

Data set [5] concerns E. coli (MC4100). The data set can be described thus: MIC against E. coli. Type of data set: cell-based. To be noted: Escherichia coli, 72 hours, 37 °C. The method, then:
as §1, §2, §3, §4

The nature of data set [6]: Dynamic surface tension (bubble pressure tensiometer). Type of data set: physicochemical. To be noted: 100, 300 and 1000 ppm in deionized water, 22 °C; 10 to 10,000 ms surface age. The method, then:
All samples were analyzed using a Krüss BPT Mobile bubble pressure tensiometer. Solutions of 12(2)12 and ^MeP2P-12,12 were made in concentrations of 100, 300 and 1000 ppm using deionized water. Measurements were conducted at 22+1 °C. Before each sample run, a new capillary tip was installed and the instrument was calibrated with deionized water. The dynamic surface tension (mN/m) was measured as a function of surface bubble age (30 collection points over the range of 10 to 10,000 ms).
In order to further investigate these highly analogous bis-cationic structures, a Krüss bubble pressure tensiometer was utilized to measure the dynamic surface tension of 12(2)12 and ^MeP2P-12,12.
Antimicrobial activity is expected to be affected by differences in solution behavior of amphiphilic molecules, such as the propensity to form micelles and solution dispersion rates. Structural factors such as nature of the charge and the alkyl chain length of the amphiphile have been previously reported to change the behavior of surfactants. These types of structural factors are consistent with the factors that influence the inventors' proposed mechanism of action for bacteria membrane disruption by multicationic QACs. […]

For orientation: MIC means the lowest concentration found to suppress growth. A high value points to a less susceptible organism. Turning to `CCCCCCCCCCCC[N+](C)(C)CC[N+](C)(C)CCCCCCCCCCCC` [12(2)12, reference compound], the “antimicrobial activity / bioactivity (in words)” value in data set [1] is “almost identical bioactivity across the bacterial panel”. In addition, the MIC in data set [2] came out at 8 µM; in data set [4], 2 µM; in data set [5], 2 µM. For the same molecule, the MBEC in data set [3] turned out to be 4 µM. The “dynamic surface tension (in words)” value in data set [6] was “behave almost identically in solution”.

For `CCCCCCCCCCCC[P+](C)(C)CC[P+](C)(C)CCCCCCCCCCC` [^MeP2P-12,12], the “antimicrobial activity / bioactivity (in words)” value in data set [1] is on record as “single-digit micromolar activity; also recorded: almost identical bioactivity across the bacterial panel”. Also, the MIC in data set [2] worked out at 4 µM; in data set [4], 8 µM; in data set [5], 4 µM. In data set [3], this molecule came in with an MBEC of 8 µM. Also, the “dynamic surface tension (in words)” value in data set [6] is recorded as “behave almost identically in solution”.
